In assay [1] the test system is sebaceous gland carcinoma cell line SHNPH-SeC. As to the kind of experiment: Drug sensitivity test of SHNPH-SeC cells (CCK-8 cell viability). It counts as cell-based, human. Conditions: 48 h, cell viability by CCK-8, read-out: Half-maximal effective concentration (EC50). On the procedure: Cells in a logarithmic growth phase were harvested and prepared into a cell suspension at a concentration of 2×10^4 cells/mL. The cell suspension was inoculated into a 96-well plate at 100 μL/well. The cell proliferation in the 96-well plate was measured by the CCK-8 method on day 0, day 1, day 2, day 3, and day 4. The CCK-8 method was performed according to instructions of a kit. Specifically, a sample was incubated with 10 μL of a CCK-8 solution for 2 h in a 37° C. and 5% CO2 incubator, and an OD value was then measured at 450 nm. As shown in the growth curve of FIG. 3A, the sebaceous gland carcinoma cell line SHNPH-SeC required a doubling time of approximately 36 h, indicating a strong proliferative capacity.
Cells in a logarithmic growth phase were collected and prepared into a cell suspension with a concentration of 2×10^4 cells/mL. […] When a cell density reached approximately 80%, MMC was added to each well at concentrations of 0 μmol/L, 0.15625 μmol/L, 0.3125 μmol/L, 0.625 μmol/L, 1.25 μmol/L, 2.5 μmol/L, 5 μmol/L, 10 μmol/L, and 20 μmol/L or 5-FU was added to each well at concentrations of 0 μmol/L, 5 μmol/L, 10 μmol/L, 20 μmol/L, 40 μmol/L, 80 μmol/L, 160 μmol/L, 320 μmol/L, and 640 μmol/L. 48 h later, a cell viability in each well was detected by the CCK-8 method, with a specific process as described in section 2.3. […]

The subject of assay [2] is sebaceous gland carcinoma cell line BP50 without a TP53 mutation. The conditions noted are these: BP50 cells without a TP53 mutation, previously reported; cited from earlier work.

Read-outs that look alike come from different tables or passages of the source.

Consider `O=c1[nH]cc(F)c(=O)[nH]1` [5-FU, 5-fluorouracil], for which, in assay [1] (Homo sapiens), the EC50 is 83 µM. `CO[C@@]12[C@H](COC(N)=O)C3=C(C(=O)C(C)=C(N)C3=O)N1C[C@@H]1N[C@@H]12` [MMC, mitomycin C]: the figures for the EC50 in assay [2] and in assay [1] were 10.4 µM and 1.13 µM, respectively.

These data come from US20260146236A1, “HUMAN SEBACEOUS GLAND CARCINOMA CELL LINE AND US THEREOF” (SHANGHAI NINTH PEOPLE'S HOSPITAL, SHANGHAI JIAOTONG …, priority 2023, published 2026).
